PMC12557438, “Thiadiazino-indole, thiadiazino-carbazole and benzothiadiazino-carbazole dioxides: synthesis, physicochemical and early ADME characterization of representatives of new tri-, tetra- and pentacyclic ring systems and their intermediates” (Beilstein Journal of Organic Chemistry, 2025)
Converted amounts (≈) assume the structure as drawn.

How the values were obtained:
Format in all cases: physicochemical
[1] = DMSO solubility (stock solution preparation)
Description: (§1) Kinetic aqueous solubility assay. All compounds were dissolved in DMSO to make stock solutions at 10 mM concentration. […] 5 μL of the stock solutions was pipetted into a 96-well plate containing 495 μL PBS (pH 6.5) in each well to achieve 100 μM target concentration (1% DMSO). […] The plate was then sealed and shaken for 2 hours at room temperature. Each compound was investigated in 3 replicates. After 2 hours, the samples were filtered on a MultriscreenHTS filter plate (MSSLBPC, polycarbonate membrane, Merck KGaA, Darmstadt, Germany) by a Millipore Vacuum Manifold (Merck KGaA, Darmstadt, Germany). Before analyzing, 20 vol % acetonitrile was added to each well to avoid sample precipitation during HPLC analysis.

[2] = Kinetic aqueous solubility assay; parameters: key to Kinetic solubility (no value): –: Compounds with no value were under the detection limit; details: room temperature; for Kinetic solubility (no value): PBS pH 6.5, 2 hours, dash = under the detection limit; for solubility kinetic at 2 h: PBS buffer, pH 6.5, aqueous buffer, kinetic from dmso stock, PBS pH 6.5, 100 µM target concentration (1% DMSO), mean of 3 replicates, read-out: Kinetic solubility
Description: as §1
Analytical methods. […] For a 7-minute long gradient program, eluents A (0.1% formic acid in water) and B (0.1% formic acid in acetonitrile) were used as follows: initial conditions with 30% B were kept for 1 minute, then 90% B was achieved within 3 minutes, kept for further 1 minute, finally the initial condition was adjusted and equilibrated for further 2 minutes. 5-Point calibration series were measured from each compound resulting in R^2 ≈ 0.9990–0.9999.

[3] = Determination of the capacity factor (logk) by RP-HPLC; details: reversed-phase chromatographic capacity factor, eluent pH 7.0
Description: Determination of the capacity factor. […] The same analytical method was used with modified eluents: eluent A was 20 mM triethylamine with phosphoric acid (pH 7.0), and eluent B was acetonitrile without additives. The method time was slightly extended, with a 1-minute longer gradient, resulting in an 8-minute program. The capacity factor was calculated with Equation 3: […]
where k is the capacity factor, tR is the retention time (min) of the compounds and t0 is the dead-time of the column (min).

| Compound | highest concentration achieved in DMSO [1] | Kinetic solubility (no value) [2] | logk (−) pH 7.0 [3] | solubility kinetic at 2 h [2] |
| --- | --- | --- | --- | --- |
| CC1=NN(C)S(=O)(=O)c2c(N/N=C3\CCCc4ccccc43)cccc21 [(E)-9a] | 1 mM | – | 0.653 |  |
| CN1N=C(c2ccccc2)c2cccc(NN=C3CCCC3)c2S1(=O)=O [Compound 7i] | 0.5 mM |  | 0.661 | 2.2 ± 0.1 µM (≈ 0.811 µg/mL) |
| CN1N=C(c2ccccc2)c2cccc(NN=C3CCCCC3)c2S1(=O)=O [Compound 7j] | 0.5 mM |  | 0.660 | 2.8 ± 0.2 µM (≈ 1.07 µg/mL) |
| CN1N=C(c2ccccc2)c2cccc(N/N=C3\CCCc4ccccc43)c2S1(=O)=O [(E)-9b] | 0.5 mM | – | 0.695 |  |
